What all share (format): cell-based
The test system of assay [1] is primary cultured SD fetal rat cortical neurons after OGD damage. Description: OGD damage of cortical neurons, observation under light microscope. The following applies: OGD 2 h, 24 h reoxygenation; ABPPk2 medium-dose (40 ng/ml) and high-dose (200 ng/ml) groups vs OGD damage group. Here is the method: (§1) The suspension was filtered with a 400-mesh screen, centrifuged at 1000 rpm for 5 min, and blown to form the single cell suspension. DMEM high glucose complete medium (containing 10% fetal bovine serum) was inoculated in a culture dish or culture plate pre-coated with polylysine (PLL) to culture in 5% CO2 incubator with saturated humidity at 37° C. After the cells were cultured for 4 h to adhere to the wall, the cells were cultured with neuron culture medium (neurobasal+2% B27) for 3 d to observe the growth of neurons. The culture medium containing cytarabine (the final concentration of cytarabine was 2.5 μg/ml) was substituted with half quantity to culture for 3d to inhibit the growth of glial cells and miscellaneous cells to obtain purely cultured primary cortical nerve cells. The purity of the cortical neurons was identified by immunocytochemical staining as more than 90%.
(§2) After the cortical neurons were cultured to the 7th day, the original culture medium was sucked out, and the cells were rinsed twice with sugar-free DMEM basal medium, for 5 min each time. Each OGD damage group was added with DMEM sugar-free culture medium, placed in a Billups-Rothenberg anaerobic culture chamber, filled with 95% N2/5% CO2 to balance for 15 min, and sealed for 2 h to build an OGD model. […]

For assay [2] the test system is unchanged. Description: OGD damage of cortical neurons, Hoechst 33258 staining of apoptotic bodies. The following applies: OGD 2 h, 24 h reoxygenation; ABPPk2 8, 40, 200 ng/ml, dose-dependent; BDNF 10 ng/ml. The procedure:
as §1, §2

The test system is the same in assay [3]. Description: OGD damage of cortical neurons, CCK-8 activity. The following applies: OGD 2 h, 24 h reoxygenation; ABPPk2 8, 40, 200 ng/ml; effect more obvious as dose increased. Here is the method: as §1
After the cortical neurons were cultured to the 7th day, the original culture medium was sucked out, and the cells were rinsed twice with sugar-free DMEM basal medium, for 5 min each time. […]
Analysis of cortical neuron activity after OGD damage and drug treatment: cortical neurons were inoculated into 96-well plates at 1×10^6 cells/ml; and 100 μl cell suspension was added to each well. […] The absorbance (OD) value of the sample in each well was measured on the microplate reader at 450 nm wavelength. […]

Where no end group is shown, it is not given here.

Consider “Cys-Leu-Glu-Ser-Gly-Thr-Ser-Cys-Ile-Pro-Gly-Ala-Gln-His-Asn-Cys-Cys-Ser-Gly-Val-Cys-Val-Pro-Ile-Val-Thr-Ile-Phe-Tyr-Gly-Val-Cys-Tyr (CLESGTSCIPGAQHNCCSGVCVPIVTIFYGVCY; disulfide (positions not given here); not fully specified (bridges); also: three disulfide bonds, pairing not given here) [ABPPk2, 33 amino acid polypeptide isolated from the extract of Achyranthes bidentata Blume, three pairs of disulfide bonds]”, for which, in assay [1], the “dead cells under light microscope” value is “the number of dead cells is significantly reduced”. In addition, in assay [2], the “apoptotic bodies of cortical neuron nuclei” value is on record as “the apoptotic bodies of the cortical neuron nuclei were reduced”. In addition, the “cortical neuron activity (CCK-8)” value in assay [3] is on record as “can effectively antagonize the decrease of cortical neuron activity caused by OGD damage”.
